Source: US9586914B2, “Modulators of C3a receptors” (THE UNIVERSITY OF QUEENSLAND, priority 2011, dated 2017)
Where two headings read alike, the source gives them in different places.

Experiments:
C3a receptor (C3aR) = target: T1, C3a receptor (C3aR) (Homo sapiens, UniProt Q16581); assay: Competitive binding with [^125I]-C3a in HMDM; details: for remaining activity at 20 µM: 1 h, read-out: %[^125I]-C3a binding
T1 construct: peripheral blood mononuclear cells were isolated from buffy coat (obtained from Australian Red Cross Blood Service, Kelvin Grove); endogenous in cells; host or cells: primary human monocyte-derived macrophages (HMDM) differentiated from CD14+ monocytes of donor buffy coat
T1 sequence (Q16581 1-482): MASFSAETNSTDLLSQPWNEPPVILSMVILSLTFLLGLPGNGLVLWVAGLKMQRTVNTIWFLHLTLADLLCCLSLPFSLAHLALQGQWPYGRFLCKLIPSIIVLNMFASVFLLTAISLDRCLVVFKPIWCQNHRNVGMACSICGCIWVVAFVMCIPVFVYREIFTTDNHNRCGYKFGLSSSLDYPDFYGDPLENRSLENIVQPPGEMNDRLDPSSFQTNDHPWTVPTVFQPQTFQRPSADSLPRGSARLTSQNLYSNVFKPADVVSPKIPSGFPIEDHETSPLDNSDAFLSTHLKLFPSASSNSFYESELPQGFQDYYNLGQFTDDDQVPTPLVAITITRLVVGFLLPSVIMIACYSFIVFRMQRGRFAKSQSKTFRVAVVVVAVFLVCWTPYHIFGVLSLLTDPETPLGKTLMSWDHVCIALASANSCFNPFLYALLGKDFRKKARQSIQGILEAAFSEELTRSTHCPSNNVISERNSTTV
Excerpt: For HMDM, peripheral blood mononuclear cells were isolated from buffy coat (obtained from Australian Red Cross Blood Service, Kelvin Grove) using Ficoll-paque density centrifugation (GE Healthcare Bio-Science, Uppsala, Sweden). CD^14+ monocytes were positively selected using CD^14+ MACS magnetic beads (Miltenyi Biotech, Auburn, Calif., USA). […] Cells were harvested by gentle scraping in saline solution and replated for use on Day 7. […] Unbound radioactivity was removed by filtration through glass microfiber filters GF/B (Whatman Iner. […] The filter was washed 3 times with cold buffer (50 mM Tris-HCl) pH 7.4. […] The −log IC50 for each compound was calculated for separate experiments and express as an arithmetic mean standard error (SE). IC50 values were expressed as a geometric mean.

C3aR = target: T2, C3aR (Homo sapiens, UniProt Q16581); assay: Calcium mobilization assay in HMDM (agonist/antagonist activity); format: cell-based; details: for Emax at 10 µM: read-out: % agonist
T2 construct: peripheral blood mononuclear cells were isolated from buffy coat (obtained from Australian Red Cross Blood Service, Kelvin Grove); endogenous in cells; host or cells: primary human monocyte-derived macrophages (HMDM) differentiated from CD14+ monocytes of donor buffy coat
T2 sequence (Q16581 1-482): T1 sequence (Q16581 1-482)
Experimental: Harvested HMDM cells were washed with 0.9% NaCl solution by centrifugation at 2500 rpm for 5 min, followed by resuspension of the cell pellet with complete media. Cells were seeded at 5×10^4 cells/well in a 96-well black-wall, clear bottom plate (DKSH, Zurich), and left overnight to adhere at 37° C. On the day of the experiment, supernatant was removed and cells were incubated in dye loading buffer (Hank's Balanced Salt Solution (HBSS) with 4 μM Fluo-3, 25 μL pluronic acid, 1% fetal bovine serum (FBS) and 2.5 mM probenecid) for one hour at 37° C. Cells were then washed twice with HBSS and transferred to a Fluorostar spectrofluorimeter (BMG, Durham N.C.) for oxazole compound injection and fluorescence measurements.
Various compounds were examined in the calcium mobilization assay for agonist or antagonist activity compared to hC3a and to the known antagonist SB290157.
HMDMs were seeded into black-wall, clear bottom 96-well plates (Corning Incorporated, NY) at 50,000 cells/well and left to incubate at 37° C. with 5% CO2 overnight for cells to adhere. The medium was removed before being washed with the assay buffer (1×HBSS, 20 mM HEPES, 2.5 mM probenecid, pH 7.4). To each well was added 100 μL of dye-loading buffer made up of 12 mL calcium buffer, 1% FBS, 25 μL of Fluo-3 dye (final concentration of 4 μM) and 25 μL of 20% pluronic acid. The plate was covered in aluminium foil to protect the light-sensitive dye and left to incubate at 37° C. for 1 h. The dye-loading buffer was removed before the cells were washed with the assay buffer to remove excess loading dye. To each well was added 50 μL of fresh assay buffer before the plate was loaded into a FLIPR (Fluorescent Imaging Plate Reader) that can inject treatments and measure any calcium release. To generate agonist plots, calcium release was monitored for 300 seconds. To generate antagonist plots, calcium release was recorded for 900 seconds, which at the same time would allow incubation for the antagonists. After the initial incubation period, an agonist would be added and the response was recorded for 300 seconds. Intracellular release of calcium was recorded via fluorescence measurements at wavelength of 485 nm for excitation and 520 nm for emission.

[1] = Table 8, HMDM, read-out: Receptor Binding Affinity ^125I IC50
[2] = Table 10, HMDM, read-out: Antagonist Activity Ca^2+ IC50
[3] = Table 10, HMDM, read-out: Agonist Activity EC50
[4] = Table 6, competitive binding with [^125I]-C3a, HMDM, read-out: IC50 (converted)
[5] = Table 9, Ca^2+ mobilization, HMDM, read-out: EC50
[6] = Table 6, competitive binding with [^125I]-C3a, HMDM
[7] = Table 9, Ca^2+ mobilization, HMDM
[8] = Table 6, competitive binding with [^125I]-C3a, HMDM, read-out: pIC50 ± SEM (converted)
[9] = Table 13, calcium release from HMDM, read-out: Antagonist Activity IC50

| SMILES | IC50 (C3a receptor (C3aR); [4]) | EC50 (C3aR; [5]) | remaining activity at 20 µM (C3a receptor (C3aR)) | Emax at 10 µM (C3aR) | further results |
| --- | --- | --- | --- | --- | --- |
| N=C(N)NCCC[C@H](NC(=O)c1oc(C(c2ccccc2)c2ccccc2)nc1-c1ccccc1)C(=O)O [Compound 66, 2-Diphenylmethyl-4-phenyl oxazole-5-carboxyl-Arg-OH] | – | – | – | – | IC50 (C3a receptor (C3aR); [1]): 0.123 µM; IC50 (C3aR; [2]): 2 µM |
| N=C(N)NCCC[C@H](NC(=O)c1nc(C(c2ccccc2)c2ccccc2)[nH]c1-c1ccccc1)C(=O)O [Compound 62, 2-Diphenylmethyl-4-phenyl imidazole-5-carboxyl-Arg-OH] | – | – | – | – | IC50 (C3a receptor (C3aR); [1]): 0.046 µM; EC50 (C3aR; [3]): > 100 µM; IC50 (C3aR; [2]): 0.6 µM |
| Cc1[nH]c([C@H](CC(C)C)NC(=O)c2c[nH]c3ccccc23)nc1C(=O)N[C@@H](CCCNC(=N)N)C(=O)O [Compound 79, 3-Indole carboxylic acid-Leucine-5-methyl-imidazole-Arginine-OH] | 0.012 µM | 0.015 µM | – | – | – |
| CC[C@H](C)[C@H](NC(=O)C(c1ccccc1)c1ccccc1)c1nc(C(=O)N[C@@H](CCCNC(=N)N)C(=O)O)co1 [Compound 7, Diphenyl Acetic Acid Isoleucine Oxazole Arginine] | 0.137 µM | 5.6 µM | – | – | pIC50 ± SEM (C3a receptor (C3aR); [6]): 6.86 ± 0.08; pEC50 ± SEM (C3aR; [7]): 5.25 ± 0.31 |
| COc1cccc(CC(=O)N[C@@H](CC(C)C)c2nc(C(=O)N[C@@H](CCCNC(=N)N)C(=O)O)c(C)o2)c1 [Compound 38, 3-Methoxy-phenylacetic acid-Leucine-5-Methyl-Oxazole-Arginin] | – | – | 41% | 87% | – |
| CC[C@H](C)[C@H](NC(=O)Cc1c[nH]c2ccccc12)c1nc(C(=O)N[C@@H](CCCNC(=N)N)C(=O)O)co1 [Compound 9, 2-(1H-indol-3-yl)acetic acid-Isoleucine-Oxazole-Arginine-OH] | 0.152 µM | 0.073 µM | – | – | pIC50 ± SEM (C3a receptor (C3aR); [6]): 6.82 ± 0.10; pEC50 ± SEM (C3aR; [7]): 7.14 ± 0.19 |
| Cc1oc([C@H](CC(C)C)NC(=O)c2ccccn2)nc1C(=O)N[C@@H](CCCNC(=N)N)C(=O)O [Compound 29, Picolinic acid-Leucine-5-Methyl-Oxazole-Arginine] | – | – | 31% | 77% | – |
| CC[C@H](C)[C@H](NC(=O)C1CCCc2ccccc21)c1nc(C(=O)N[C@@H](CCCNC(=N)N)C(=O)O)co1 (stereo partly shown) [Compound 21, Tetrahydronapthalene-isoleucine-oxazole-arginine-OH] | 0.104 µM | 0.24 µM | – | – | pIC50 ± SEM (C3a receptor (C3aR); [6]): 6.98 ± 0.11; pEC50 ± SEM (C3aR; [7]): 6.62 ± 0.28 |
| N=C(N)NCCC[C@H](NC(=O)c1coc(C(c2ccccc2)c2ccccc2)n1)C(=O)O [Compound 56, 2-Diphenylmethyl-oxazole-4-carboxyl-Arg-OH] | 0.037 µM | 0.0066 µM | – | – | IC50 (C3a receptor (C3aR); [8]): 0.0372 µM; IC50 (C3a receptor (C3aR); [1]): 0.001 µM; IC50 (C3a receptor (C3aR); Table 12, read-out: Receptor Binding Affinity pIC50 ± SE (converted)): 0.0372 µM; Agonist Activity (in words) (C3aR; Table 10, HMDM): partial agonist; IC50 (C3aR; [2]): 0.02 µM; EC50 (C3aR; Table 12, read-out: Apparent Agonist Activity EC50): 0.0066 µM |
| N#CN=C(N)NCCC[C@H](NC(=O)c1ccc(C(c2ccccc2)c2ccccc2)s1)C(=O)O [Compound 95, (S)-2-(5-benzhydrylthiophene-2-carboxamido)-5-(2-cyanoguanidino)pentanoic acid] | 0.853 µM | – | – | – | IC50 (C3aR; [9]): 0.9 µM |
| N=C(N)NCCC[C@H](NC(=O)c1nnc(C(c2ccccc2)c2ccccc2)o1)C(=O)O [Compound 69, 2-Diphenylmethyl-1-oxa-3,4-diazole-5-carboxyl-Arginine-OH] | – | – | – | – | IC50 (C3a receptor (C3aR); [1]): 2.58 µM; IC50 (C3aR; [2]): 24 µM |
| Cc1[nH]c([C@H](CC(C)C)NC(=O)OC(C)(C)C)nc1C(=O)N[C@@H](CCCNC(=N)N)C(=O)O [Compound 80, Boc-Leucine-imidazole-Arginine-OH] | 0.038 µM | 0.12 µM | – | – | – |
| Cc1nc(C(c2ccccc2)c2ccccc2)oc1C(=O)N[C@@H](CCCNC(=N)N)C(=O)O [Compound 58, 2-Diphenylmethyl-4-methyl oxazole-5-carboxyl-Arg-OH] | 0.606 µM | – | – | – | IC50 (C3a receptor (C3aR); [8]): 0.603 µM; IC50 (C3a receptor (C3aR); [1]): 0.012 µM; IC50 (C3a receptor (C3aR); Table 12, read-out: Receptor Binding Affinity IC50): 0.606 µM; -Log IC50 (C3a receptor (C3aR); Table 14, binding affinity for C3aR on HMDM): 7.0; IC50 (C3aR; [2]): 2.9 µM; Apparent Agonist Activity pEC50 ± SE (symbol) (C3aR; Table 12): φ (compound showed no agonist activity up to 100 μM.) |
| Cc1oc([C@H](CC(C)C)NC(=O)c2cncc(Br)c2)nc1C(=O)N[C@@H](CCCNC(=N)N)C(=O)O [Compound 48, 5-Bromonicotinic acid-Leucine-5-Methyl-Oxazole-Arginine] | – | – | 32% | 68% | – |
| Cc1oc([C@H](CC(C)C)NC(=O)CC2CCCCC2)nc1C(=O)N[C@@H](CCCNC(=N)N)C(=O)O [Compound 33, Cyclohexyl acetic acid-Leucine-5-Methyl-Oxazole-Arginine] | – | – | 26% | 69% | – |
| N=C(N)NCCC[C@H](NC(=O)c1ccc(C(c2ccccc2)c2ccccc2)s1)C(=O)O [Compound 60, 5-Diphenylmethyl-thiophene-2-carboxyl-Arg-OH] | – | – | – | – | IC50 (C3a receptor (C3aR); [1]): 0.14 µM; IC50 (C3a receptor (C3aR); Table 14, binding affinity for C3aR on HMDM, read-out: -Log IC50 (converted)): 0.0631 µM; EC50 (C3aR; [3]): > 100 µM; IC50 (C3aR; [2]): 0.07 µM |
| Cc1oc([C@H](CC(C)C)NC(=O)Cc2ccc(C(F)(F)F)cc2)nc1C(=O)N[C@@H](CCCNC(=N)N)C(=O)O [Compound 36, 4-(Trifluoromethyl)-phenylacetic acid-Leucine-5-Methyl-Oxazole-Arginine] | – | – | 61% | 50% | – |
| Cc1nc(C(c2ccccc2)c2ccccc2)n(C)c1C(=O)N[C@@H](CCCNC(=N)N)C(=O)O [Compound 98, 2-Benzhydryl-1,4-Dimethyl imidazole-5-carboxyl-Arginine] | 0.031 µM | 0.04 µM | – | – | – |
| Cc1oc([C@H](CC(C)C)NC(=O)c2cc3ccccc3[nH]2)nc1C(=O)N[C@@H](CCCNC(=N)N)C(=O)O [Compound 28, Indole-2-carboxylic acid-Leucine-5-Methyl-Oxazole-Arginine] | – | – | 26% | 56% | – |
| Cc1oc([C@H](CC(C)C)NC(=O)c2cccnc2)nc1C(=O)N[C@@H](CCCNC(=N)N)C(=O)O [Compound 30] | – | – | 29% | 68% | – |
| N#CN=C(N)NCCC[C@H](NC(=O)c1ccc(C(c2ccccc2)c2ccccc2)s1)C(=O)NS(=O)(=O)c1ccccc1 [Compound 96, (S)-5-benzhydryl-N-(5-(2-cyanoguanidino)-1-oxo-1-(phenylsulfonamido)pentan-2-yl)thiophene-2-carboxamide] | 0.888 µM | – | – | – | IC50 (C3aR; [9]): 2 µM |
| Cc1oc([C@H](CC(C)C)NC(=O)Cc2ccc(/N=N/c3ccccc3)cc2)nc1C(=O)N[C@@H](CCCNC(=N)N)C(=O)O [Compound 47, Phenyl hydrazine-Benzeneacetic acid-Leucine-5-Methyl-Oxazole-Arginine] | – | – | 49% | 48% | – |
